Results reported in patent publication US5039691A, “5-(1-(imidazol)methyl)-3,3-disubstituted-2(3H)furanone derivatives” (Marion Merrell Dow Inc., priority 1990, dated 1991).
Counter-ions that a name gives are not always drawn.

Legend:
[1] = target: T1, muscarinic cholinergic receptors on intestinal (ileal-longitudinal) smooth muscle (Cavia porcellus, UniProt H0W1Z3); assay: Antimuscarinic test: antagonism of carbachol contraction of isolated ileum (Muscarinic Antagonist Activity, Ileum); parameters: species or system guinea pig; settings: carbachol agonist, 37° C.
T1 construct: The longitudinal muscle, with the myenteric plexus attached, is separated from the underlying circular muscle; from tissue; host or cells: guinea pig ileum, longitudinal smooth muscle with myenteric plexus

[2] = Solubility; type: physicochemical
[3] = tested on: isolated guinea pig ileum; settings: Kolokouris et al., Ann. Pharm. Fr. 1985; cited from earlier work
[4] = target: T2, muscarinic cholinergic receptors on bladder detrusor muscle (Cavia porcellus, UniProt H0W1Z3); assay: Antimuscarinic test: antagonism of carbachol contraction of isolated bladder (Muscarinic Antagonist Activity, Bladder); parameters: species or system guinea pig; settings: bladder detrusor strips, carbachol agonist, 35° C.
T2 construct: The peritoneal cavity is opened and the bladder is held lightly at its apex; from tissue; host or cells: guinea pig urinary bladder, detrusor strips without mucosa
Procedure: ANTIMUSCARINIC TEST PROTOCOL
PREPARATION OF BLADDER FOR TESTING
Male albino guinea pigs are killed by decapitation or cervical dislocation. The peritoneal cavity is opened and the bladder is held lightly at its apex, stretched gently, and fat is lifted with fine forceps and dissected away in situ with blunt-tipped scissors as close to the surface of the bladder as possible. The tissue is placed in a latex-bottomed Petri dish that contains a modified Krebs solution (133 mM NaCl, 1.3 mM […], 16.3 mM NaHCO3, 4.7 mM KCl, 0.6 mM MgSO4.7H2 O, 2.5 mM CaCl2.2H2 O, 7.7 mM dextrose) and cut above the neck. The bladder is collapsed into a flat pouch, which is opened by two lateral incisions and unfolded to give a rectangular sheet of tissue approximately 2 cm long and 1 cm wide. The sheet is gently stretched and pinned to the bottom of the Petri dish. Blunt separation of the mucosa, which is visible as a looser superficial pink layer, is started at one end by carefully inserting the blades of micro dissecting scissors between the mucosa and muscle layers and using gentle spreading of the blades, together with steady traction with forceps to tease the two layers apart. Clean removal of the mucosa is usually possible without any fraying or tearing of the underlying muscle. The removal of the mucosa is considered essential for improving oxygen supply to the preparation and for providing better access on both sides of the thin muscle sheet for administered drugs (Ambache and Zar, J. Physiol. 210:671, 1970). The sheet is trimmed, if necessary, and cut longitudinally into four strips.
The strips are tied off with 5-0 silk suture and are then suspended in 10 mL water-jacketed glass tissue baths containing the Krebs solution maintained at 35° C. and aerated with 95% O2 /5% CO2. The suture connects each tissue to an isometric force-displacement transducer (Grass or Gould) coupled to a physiograph. Each preparation is suspended under a resting tension of 0.5 g and allowed to equilibrate for 36 minutes. During this period, the baths are emptied and filled every 12 minutes with 10 mL of warm Krebs buffer. At the end of this period, each muscle strip is conditioned by adding 10 μM carbachol to the baths. The drug remains in contact with each tissue for 1-2 minutes and then is removed by four rapid rinses of 10 mL of warm Krebs buffer. The preparations are allowed to recover for an additional 12 minutes before being used in experiments.
Carbachol is dissolved in saline to produce 2×10^-2 M stock concentrations. Serial dilutions (1:10) in saline or water are made from the stock solution. Appropriate volumes of these solutions are added cumulatively to the 10 mL tissue baths in order to obtain the desired bath concentrations.
PREPARATION OF TEST COMPOUNDS
Compounds that are soluble in water or saline are dissolved in these solvents to produce 2×10^-2 or 2×10^-3 M stock concentrations. Small amounts of IN HCl, NaOH, or 95% ethanol may be added for those agents that are not soluble in water or saline alone. Serial dilutions (1:10) in saline or water are made from the stock solution. Compounds that are insoluble in aqueous solvents are dissolved in dimethylsulfoxide (DMSO) to produce 4×10^-2 M stock solutions. Serial dilutions (1:10) in water are made from the stock solution. Other solvents may be used when appropriate and will be specifically described in the experimental procedure. Appropriate volumes are then added to the baths in order to obtain the desired bath concentrations.
Appropriate volumes of carbachol solutions are cumulatively added to the 10 mL tissue baths to increase the concentration of carbachol in the bath step-by-step without washing out after each single dose. With each concentration step, the tissue contracts isometrically. The next concentration is added only after the preceding contraction has reached a steady value. […]

[5] = tested on: Male Guinea pigs; assay: Primary in vivo bronchodilator assay for muscarinic antagonists (reversal of carbachol bronchoconstriction); parameters: species or system guinea pig; settings: Cavia porcellus, iv, cumulative dose causing 50% reversal of carbachol bronchoconstriction
Procedure: PRIMARY IN VIVO BRONCHODILATOR ASSAY FOR MUSCARINIC ANTAGONISTS Male Guinea pigs were anesthetized by urethane. The trachea, carotid artery and jugular vein were cannulated. Animals were ventilated with room air at a constant rate and volume. Airway pressure was measured from a side port of the tracheal catheter, and blood pressure and heart rate were monitored as well. After a stable baseline period, an aerosol of carbachol was administered via an ultrasonic nebulizer. Once the bronchoconstrictor response plateaued, test compound was given in increasing i.v. doses to cause graded, cumulative reductions in airway pressure. If more than a 50% reversal of bronchoconstriction occurred, an ED50 value for bronchodilator potency was calculated using a probit analysis. The ED50 was defined as the cumulative i.v. dose that caused a 50% reversal of bronchoconstriction.

[6] = tested on: mammalian heart tissue; settings: Pohland, S. African Patent 68 05,631; cited from earlier work

T1 sequence (H0W1Z3 1-590): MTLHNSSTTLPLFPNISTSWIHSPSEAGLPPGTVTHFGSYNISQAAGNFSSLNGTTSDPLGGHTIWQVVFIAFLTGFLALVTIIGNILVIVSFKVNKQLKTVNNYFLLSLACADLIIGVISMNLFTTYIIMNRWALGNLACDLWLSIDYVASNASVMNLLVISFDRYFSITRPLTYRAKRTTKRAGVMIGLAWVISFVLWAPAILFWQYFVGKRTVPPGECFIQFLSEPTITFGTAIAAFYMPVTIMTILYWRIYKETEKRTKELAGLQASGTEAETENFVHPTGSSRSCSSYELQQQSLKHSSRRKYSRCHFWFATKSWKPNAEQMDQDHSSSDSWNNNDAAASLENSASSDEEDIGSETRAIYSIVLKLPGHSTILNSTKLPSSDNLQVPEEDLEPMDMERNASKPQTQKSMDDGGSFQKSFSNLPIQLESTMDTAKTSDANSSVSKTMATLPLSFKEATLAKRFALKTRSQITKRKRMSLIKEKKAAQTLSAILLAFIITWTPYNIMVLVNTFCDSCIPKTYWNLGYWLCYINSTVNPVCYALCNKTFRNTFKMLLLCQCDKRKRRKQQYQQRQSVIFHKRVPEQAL
T2 sequence (H0W1Z3 1-590): as above

Row | Compound | Kb [1] [nM] | Kb [4] [nM] | ED50 [5] [mg/kg] | also measured
1 | O=C1OC(Cn2cnc(-c3ccccc3)c2)CC1(c1ccccc1)c1ccccc1 (stereo not drawn) [5-[1-(4-Phenylimidazol)methyl]-4,5-dihydro-3,3-diphenyl-2(3H)furanone hydrochloride hydrate] | 140 | – | – | Insol. (printed in the bronchodilator ED50 column) ([2]; bronchodilator test, i.v.): Insol.
2 | CN(C)CC1CC(c2ccccc2)(c2ccccc2)OC1=O (stereo not drawn) [3-[(dimethylamino)methyl]-4,5-dihydro-5,5-diphenyl-2(3H)furanone] | – | – | – | prevents contractions of isolated guinea pig ileum (spasmolytic) [3]: prevents contractions of isolated guinea pig ileum
3 | 5-[1-(3-Methylimidazol)methyl]-4,5-dihydro-5-methyl-3,3-diphenyl-2(3H)furanone hydrate | 370 | 317 | – | –
4 | CCc1n(CC2CC(c3ccccc3)(c3ccccc3)C(=O)O2)cc[n+]1C (stereo not drawn) [5-[1-(2-Ethyl-3-methylimidazol)methyl]-4,5-dihydro-3,3-diphenyl-2(3H)furanone bromide] | 8 | 5 | 0.13 | –
5 | CCN(CC)CC1CC(c2ccccc2)(c2ccccc2)C(=O)O1 (stereo not drawn) [5-[(Diethylamino)-methyl]-4,5-dihydro-3,3-diphenyl-2(3H)furanone] | – | – | – | antiarrhythmic effectiveness in mammalian heart tissue [6]: antiarrhythmic effectiveness in mammalian heart tissue
6 | CCCc1nccn1CC1CC(c2ccccc2)(c2ccccc2)C(=O)O1 (stereo not drawn) [5-[1-(2-n-Propylimidazol)methyl]-4,5-dihydro-3,3-diphenyl-2(3H)furanone hydrochloride] | 21 | 70 | 1.3 | –
7 | CCc1nccn1C[C@@H]1CC(c2ccccc2)(c2ccccc2)C(=O)O1 [(S)-(-)-5-[1-(2-Ethylimidazol)methyl]-4,5-dihydro-3,3-diphenyl-2(3H)furanone hydrochloride] | 169 | 350 | – | –
8 | CC(C)c1nccn1CC1CC(c2ccccc2)(c2ccccc2)C(=O)O1 (stereo not drawn) [5-[1-(2-Isopropylimidazol)methyl]-4,5-dihydro-3,3-diphenyl-2(3H)furanone hydrochloride] | 30 | 33 | 0.83 | –
9 | CCCc1n(CC2CC(c3ccccc3)(c3ccccc3)C(=O)O2)cc[n+]1C (stereo not drawn) [5-[1-(3-Methyl-2-n-propylimidazol-methyl]-4,5-dihydro-3,3-diphenyl-2(3H)furanone iodide] | 23 | 11 | 0.11 | –
10 | CCc1nccn1C[C@H]1CC(c2ccccc2)(c2ccccc2)C(=O)O1 [(R)-(+)-5-[1-(2-Ethylimidazol)methyl]-4,5-dihydro-3,3-diphenyl-2(3H)furanone hydrochloride] | 21 | 129 | – | –
11 | CC(C)c1nccn1C[C@H]1CC(c2ccccc2)(c2ccccc2)C(=O)O1 [(R)-(+)-5-[1-(2-Isopropylimidazol)methyl]-4,5-dihydro-3,3-diphenyl-2(3H)furanone hydrochloride] | 10 | 15 | – | –
12 | CC(C)c1n(CC2CC(c3ccccc3)(c3ccccc3)C(=O)O2)cc[n+]1C (stereo not drawn) [5-[1-(2-Isopropyl-3-methylimidazol-methyl]-4,5-dihydro-3,3-diphenyl-2(3H)furanone bromide] | 2.9 | 0.7 | – | –
13 | CCOCc1n(C)cc[n+]1CC1CC(c2ccccc2)(c2ccccc2)C(=O)O1 (stereo not drawn) [5-[1-(Ethoxymethyl-3-methylimidazol)methyl]-4,5-dihydro-3,3-diphenyl-2(3H)furanone iodide] | 253 | 339 | > 10 | –
14 | C[n+]1ccn(CC2CC(c3ccccc3)(c3ccccc3)C(=O)O2)c1 (stereo not drawn) [5-[1-(3-Methylimidazol)methyl]-4,5-dihydro-3,3-diphenyl-2(3H)furanone bromide hydrate] | 322 | 151 | 1 | –
15 | CCc1nccn1CC1CC(c2ccccc2)(c2ccccc2)C(=O)O1 (stereo not drawn) [5-[1-(2-Ethylimidazol)methyl]-4,5-dihydro-3,3-diphenyl-2(3H)furanone hydrochloride] | 68 | 86 | 4 | –
16 | Cc1nccn1CC1CC(c2ccccc2)(c2ccccc2)C(=O)O1 (stereo not drawn) [5-[1-(2-Methylimidazol)methyl]-4,5-dihydro-3,3-diphenyl-2(3H)furanone] | 107 | 238 | 5.5 | –
17 | CC(C)c1n(CC2CC(c3ccccc3)(c3ccccc3)C(=O)O2)cc[n+]1C (stereo not drawn) [5-[1-(2-Isopropyl-3-methylimidazol)methyl]-4,5-dihydro-3,3-diphenyl-2(3H)furanone iodide] | 4 | 2.4 | – | –
18 | CC(C)c1nccn1CC1=CC(c2ccccc2)(c2ccccc2)C(=O)O1 [5-[1-(2-Isopropylimidazol)methyl]-3,3-diphenyl-2(3H)furanone hydrochloride hydrate] | 31 | – | – | solubility ([2]; in 0.5N HCl and 1 drop of Tween 80): > 1000 µg/mL
